Results reported in patent US11173144B2, “Adrenergic receptor modulating compounds and methods of using the same” (The Board of Trustees of the Leland Stanford Junior …, priority 2016, dated 2021).
“Also recorded” adds a separate entry of the source. Like-named read-outs stand apart in the source and are kept apart here.

Legend:
[1] = tested on: panel of CNS relevant targets, including G-protein coupled receptor and transporters; test: Screen against a panel of CNS relevant targets (off-target affinity); type: binding
Description: (§1) From a drug development perspective, characterizing the off-target effects of lead compounds is an important issue, as interactions with off-target molecules may lead to undesirable side effects. Thus we screened xamoterol (S) and the key compound compound 43 against a panel of CNS relevant targets, including G-protein coupled receptor and transporters. […].

5-HT1A = 5-HT1A (Homo sapiens (Human), UniProt P08908); test: CNS target panel screen: 5-HT1A; type: binding
Description: as §1

5-HT2B = 5-HT2B (Homo sapiens (Human), UniProt P41595); test: CNS target panel screen: 5-HT2B; type: binding
Description: From a drug development perspective, characterizing the off-target effects of lead compounds is an important issue, as interactions with off-target molecules may lead to undesirable side effects. Thus we screened xamoterol (S) and the key compound compound 43 against a panel of CNS relevant targets, including G-protein coupled receptor and transporters.

α1D adrenergic receptor = α1D adrenergic receptor (Homo sapiens (Human), UniProt P25100); test: CNS target panel screen: α1D adrenergic receptor; type: binding
Description: as §1

D3 dopaminergic receptor = D3 dopaminergic receptor (Homo sapiens (Human), UniProt P35462); test: CNS target panel screen: D3 dopaminergic receptor; type: binding
Description: as §1

[2] = Pharmacokinetic study, 4 hour time course; type: in vivo, Sprague-Dawley rats; settings: rat; for AUC(0-inf) / Cmax / bioavailability: Sprague-Dawley, 10 mg/kg; for AUC(0-inf): AUCinf
Method: Two cohorts of Sprague-Dawley rats are used in two independent studies. All animals are fasted overnight before the experiment with free access to water. In study 1, a total of 18 rats are used for a 4 h time course pharmacokinetic (PK) study. […] On the day of the experiment, xamoterol is freshly prepared in saline. […] Four hours post-dose, rats are deeply anesthetized with isoflurane and blood samples are collected by cardiac puncture. In study 2, a total of 18 rats are used for a 20 min post-dose collection study. […] At 20 min post-dose, rats are deeply anesthetized with isoflurane and blood samples are collected by cardiac puncture. Brains are collected after perfusion with phosphate buffered saline. […] LC separation is carried out on a Phenomenex Synergi Polar-RP column (2.5 μm, 2 mm×50 mm) with a flow rate of 0.25 ml/min at room temperature. Mobile phase A consisted of 10 mM ammonium acetate and 0.1% formic acid in LCMS grade water. Mobile phase B consisted of 10 mM ammonium acetate and 0.1% formic acid in LCMS grade acetonitrile: water 90:10% (v/v). […] Five μl of the extracted samples is injected. The mass spectrometer is operated in the positive mode with multiple-reaction monitoring (MRM) with the transition m/z 334.1→210.1 and 334.1→100.2.

[3] = tested on: heart rate and blood pressure; test: Cardiovascular studies (heart rate and blood pressure) in anesthetized rats; type: in vivo, Sprague-Dawley rats; settings: 3 mg/kg subcutaneous
Method: Adult rats are anesthetizes using isoflurane and are accommodated on a heated platform warmed to 36° C. A jugular catheter (for IV administration of the drug) and an intra-arterial catheter (tail artery, for blood pressure measurements) are implanted under 2.5% isoflurane. To avoid clotting, all animals received a single dose of heparin after intravenous cannulation. Intra-arterial catheter was then connected to a pressure transducer coupled to a computerized data acquisition system (PowerLab) and its application software (LabChart 8)[AD Instruments (Australia)]. Mean blood pressure and the hear rate was analyzed and plotted using prism software.
Briefly, rats are anesthetized with 3-4% isoflurance and 1 cm longitudinal incision is made on the ventral aspect of the tail exposing the tail artery. Polyethylene catheter (PE50) filled with heparinized saline is then inserted into the tail artery and connected to blood pressure transducer system. After assuring absence of any air bubbles, 5-10 min of baseline systolic and diastolic blood pressure along with heart rate are recorded using LabChart Pro (AD Instruments).
FIG. 9 illustrates the effect of exemplary compounds on average heart rate in a rat in comparison with reference compounds isoprenaline and ICI 118,551. FIG. 10 illustrates the effect of exemplary compounds on blood pressure in a rat in comparison with reference compounds isoprenaline and ICI 118,551.

[4] = tested on: Abeta-induced LTP impairment in hippocampal slices; test: Long-term potentiation in hippocampal slices exposed to amyloid beta; settings: mouse hippocampal slices, 10 uM
Method: Mice were anesthetized with isoflurane before decapitation. The brain was quickly removed and immersed for 2 min in ice-cold low-calcium modified artificial cerebrospinal fluid (mACSF) composed of (in mM): 119 NaCl, 2.5 KCl, 1 CaCl2, 3 MgSO4, 1 NaH2PO4, 26 NaHCO3 and 10 glucose, osmolarity ˜305 mOsm, continuously bubbled with 95% O2-5% CO2, pH=7.4. The hippocampus was dissected out and cut in ice-cold mACSF with a vibratome (Leica VT1000S; Nussloch, Germany) into […] slices from the middle part of the hippocampus. The slices were allowed to recover in oxygenated mACSF at 33° C. for 10 min, and then at room temperature for an additional 2-3 hr before experimental recordings. Slices were transferred into the recording chamber and superfused with regular ACSF containing (in mM): 119 NaCl, 2.5 KCl, 2.5 CaCl2, 1.3 MgSO4, 1 NaH2PO4, 26 NaHCO3 and 10 glucose, continuously bubbled with 95% O2-5% C02, pH=7.4, osmolarity ˜305 mOsm, at a constant rate of 2.7 mL/min at 32° C. […] The initial slope of field excitatory postsynaptic potentials (fEPSP) was measured at latencies 0.1-0.9 ms. […] After stabilization of responses, input-output dependences were measured using series of stimulation intensities (range 30-150 μA). […] LTP was induced by high-frequency tetanization ([…], 100 Hz for 1 sec), and the responses were recorded for the period of 1.5 h after the tetanus.

5XFAD mice = test: Chronic xamoterol in 5XFAD mouse model of Alzheimer's disease, cortex qRT-PCR of inflammation genes; settings: 3 mg/kg/day by mini-osmotic pump, 2.5 months

5-HT2B, sequence (P41595 whole entry, species assumed): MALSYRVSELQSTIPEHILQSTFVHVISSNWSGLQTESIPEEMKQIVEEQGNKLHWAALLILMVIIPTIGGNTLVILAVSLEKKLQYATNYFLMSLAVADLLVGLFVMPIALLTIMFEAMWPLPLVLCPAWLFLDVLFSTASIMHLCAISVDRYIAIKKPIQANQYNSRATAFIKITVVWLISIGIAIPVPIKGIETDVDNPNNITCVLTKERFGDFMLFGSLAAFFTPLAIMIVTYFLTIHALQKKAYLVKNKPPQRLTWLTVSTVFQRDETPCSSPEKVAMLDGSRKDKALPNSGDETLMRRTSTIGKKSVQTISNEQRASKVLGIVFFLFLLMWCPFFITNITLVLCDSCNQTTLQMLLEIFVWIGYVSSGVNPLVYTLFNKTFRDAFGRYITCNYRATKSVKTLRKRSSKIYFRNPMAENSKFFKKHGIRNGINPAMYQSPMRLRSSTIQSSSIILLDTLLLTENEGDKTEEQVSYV
D3 dopaminergic receptor, sequence (P35462 whole entry): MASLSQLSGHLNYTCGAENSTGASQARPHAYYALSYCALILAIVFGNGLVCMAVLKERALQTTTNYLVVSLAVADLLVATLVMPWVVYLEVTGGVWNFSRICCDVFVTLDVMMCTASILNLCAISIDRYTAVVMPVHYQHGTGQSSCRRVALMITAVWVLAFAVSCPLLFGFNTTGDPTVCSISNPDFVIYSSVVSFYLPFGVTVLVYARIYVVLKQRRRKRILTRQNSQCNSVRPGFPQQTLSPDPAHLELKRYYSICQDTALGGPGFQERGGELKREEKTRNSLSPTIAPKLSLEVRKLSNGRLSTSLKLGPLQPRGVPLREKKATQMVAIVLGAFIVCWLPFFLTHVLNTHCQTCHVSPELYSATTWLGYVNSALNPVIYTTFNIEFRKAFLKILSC
5-HT1A, sequence (P08908 whole entry, species assumed): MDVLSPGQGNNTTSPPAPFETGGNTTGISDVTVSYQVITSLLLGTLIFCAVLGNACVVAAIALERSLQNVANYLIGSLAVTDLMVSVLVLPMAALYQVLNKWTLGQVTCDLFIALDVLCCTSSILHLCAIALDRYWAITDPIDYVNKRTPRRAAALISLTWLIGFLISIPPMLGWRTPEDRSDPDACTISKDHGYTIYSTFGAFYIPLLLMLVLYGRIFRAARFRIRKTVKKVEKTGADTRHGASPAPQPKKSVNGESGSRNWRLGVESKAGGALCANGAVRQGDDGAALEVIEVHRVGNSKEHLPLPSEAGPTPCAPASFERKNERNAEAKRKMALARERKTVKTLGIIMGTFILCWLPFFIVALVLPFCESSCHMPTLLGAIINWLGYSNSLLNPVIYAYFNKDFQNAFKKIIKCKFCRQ
α1D adrenergic receptor, sequence (P25100 whole entry): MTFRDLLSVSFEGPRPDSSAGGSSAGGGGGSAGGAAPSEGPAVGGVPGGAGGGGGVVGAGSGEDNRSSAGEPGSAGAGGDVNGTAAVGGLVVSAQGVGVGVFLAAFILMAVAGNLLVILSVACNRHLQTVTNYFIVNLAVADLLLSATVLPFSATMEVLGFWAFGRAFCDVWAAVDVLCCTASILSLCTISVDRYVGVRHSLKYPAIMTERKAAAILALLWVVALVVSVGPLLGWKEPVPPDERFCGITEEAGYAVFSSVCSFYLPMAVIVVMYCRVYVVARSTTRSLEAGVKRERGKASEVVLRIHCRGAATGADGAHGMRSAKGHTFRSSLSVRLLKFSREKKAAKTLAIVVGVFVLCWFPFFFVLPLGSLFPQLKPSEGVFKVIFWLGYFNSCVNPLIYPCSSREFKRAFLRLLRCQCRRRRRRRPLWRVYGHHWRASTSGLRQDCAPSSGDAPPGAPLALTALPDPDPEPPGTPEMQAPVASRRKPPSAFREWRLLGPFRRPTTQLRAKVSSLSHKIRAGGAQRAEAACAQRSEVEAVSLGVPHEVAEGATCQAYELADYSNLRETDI

Structure (SMILES) | affinity for opioid, histamine, and muscarinic acetylcholine receptors [1] | affinity for 5-HT1A (5-HT1A) | affinity for 5-HT2B (5-HT2B) | affinity for α1D adrenergic receptor (α1D adrenergic receptor) | affinity for D3 dopaminergic receptor (D3 dopaminergic receptor) | AUC(0-inf) ([2]; in vivo, ip) | Cmax ([2]; in vivo, ip, Cmax) | AUC(0-inf) ([2]; in vivo, iv) | Cmax ([2]; in vivo, iv, Cmax) | bioavailability ([2]; in vivo, po) | Cmax ([2]; in vivo, po, 10 mg/kg PO - Portal vein, read-out: Cmax) | Cmax ([2]; in vivo, po, 10 mg/kg PO - Systemic (jugular vein), read-out: Cmax) | time of maximum concentration in systemic plasma ([2]; 10 mg/kg IP) | clearance ([2]; 4 hour time-course PK study) | effect on blood pressure [3] | effect on heart rate [3] | clearance ([2]; in vivo) | amyloid beta-induced LTP impairment [4] | expression of inflammation genes in cortex (5XFAD mice)
COc1ccccc1OCCNC[C@H](O)COc1ccc(O)cc1 [Compound 43] | nominal affinity | significant affinity | significant affinity | significant affinity | significant affinity | 2160 ± 310 ng·h/mL | 762 ± 67 ng/mL | 1800 ± 256 ng·h/mL | 4000 ± 1110 ng/mL | 6% | 946 ng/mL | 116 ng/mL | 90 min | cleared more slowly | significant reduction | did not produce significant effects | – | – | –
O=C(NCCNCC(O)COc1ccc(O)cc1)N1CCOCC1 (centres unmarked) [Xamoterol, reference compound] | – | – | – | – | – | 2830 ± 517 ng·h/mL | 7440 ± 730 ng/mL | 2450 ± 601 ng·h/mL | 22200 ± 4030 ng/mL | 1.7% | – | – | – | – | significant reduction | did not produce significant effects | cleared rapidly | blocks the LTP impairment induced by Ab; also recorded: blocks the Ab-induced LTP in impairment | attenuated elevated expression of Iba1, CD74, CD14 and TGFb
